Assay in all cases: DTP human tumour cell line panel, 48 h
Test [1] has as its system 786-0.
Test [2] has as its system ACHN.
For test [3], the system named is HCT-15.
Test [4] has as its system HL-60.
Test [5] relates to HOP-62.
Test [6] has as its system HT-29.
Test [7] deals with K562.
Test [8] has as its system M14.
Test [9] deals with Malme-3M.
Test [10] concerns OVCAR-3.
For test [11], the system named is OVCAR-4.
The subject of test [12] is SF-295.
Test [13] relates to SK-MEL-28.
Test [14] concerns SK-MEL-2.
Test [15] relates to SK-MEL-5.
In test [16] the test system is SNB-75.
Test [17] has as its system UACC-257.
Test [18] relates to SF-539.
Test [19] relates to HOP-92.

The structures appear in SMILES notation.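 In this assay, cells in 96-well plates receive the compound at five concentrations for 48 hours. Endpoints are linearly interpolated between the surrounding concentrations. The concentration for 50% growth inhibition is given as GI50.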 Activity calls are given as the source filed them. Cut-off read from the data, not from the text of the source: active = GI50 up to about 1.1 µM and inactive = higher.

In general, GI50 refers to the concentration giving 50% growth inhibition. For `COC(=O)C(=O)C1(CCC(C)=O)c2ccccc2-c2ccccc21`, the GI50 in [1] is 85.1 µM (inactive); in [2], > 100 µM (inactive); in [3] it was 56.4 µM; in [4] it was 35.5 µM (inactive); in [5] it was 68.7 µM (inactive); in test [6], 79.8 µM (inactive). Moreover, the GI50 in [7] is 44.5 µM (inactive); in test [8] it was 41 µM (inactive); in [9], 49.7 µM (inactive); in test [10], 44.6 µM (inactive); in [11], > 100 µM (inactive); in test [12], > 100 µM (inactive). The GI50 in [13] is 94 µM (inactive); in test [14], 83.4 µM (inactive); in test [15], 35.7 µM (inactive); in test [16], 93.3 µM (inactive); in [17], 55.2 µM (inactive).

Turning to `O=C(O)CCSC(=O)Nc1ccccc1`, the GI50 in test [1] was > 100 µM (inactive); in [2] it was 97.9 µM (inactive); in test [3] it was greater than 100 µM; in test [4], > 100 µM (inactive); in [5] it was > 100 µM (inactive); in test [6] it was > 100 µM (inactive). The GI50 in [7], in [8], in [10], in test [11], in [12] and in [18] was > 100 µM (inactive) throughout. In addition, the GI50 in [13], in test [14] and in [17] was > 100 µM (inactive) each time.

For `Cc1ccc(-c2nc3ccccc3c(=O)n2NCC2(O)OCC(O)C(O)C2O)cc1` (centres undefined), the GI50 in [1] was > 100 µM (inactive); in [2], > 100 µM (inactive); in test [3], greater than 100 µM; in test [4] it was > 100 µM (inactive); in test [6], > 100 µM (inactive); in test [7], > 100 µM (inactive). The GI50 in test [8], in test [9], in test [10], in [11], in [12] and in test [18] was > 100 µM (inactive) throughout. Further, the GI50 in test [13], in test [14], in [15], in test [16] and in test [17] was > 100 µM (inactive) throughout.

Turning to `Cc1cc2c(=O)cc(-c3ccc(C(=O)O)cc3)oc2c(C(N)=O)c1C`, the GI50 in test [1] is > 100 µM (inactive); in test [2], > 100 µM (inactive); in test [3] it was greater than 100 µM; in test [5], > 100 µM (inactive); in test [19], > 100 µM (inactive); in [6] it was > 100 µM (inactive). In addition, the GI50 in test [7], in [8], in test [9], in [10], in test [11] and in [12] was > 100 µM (inactive) throughout. Further, the GI50 in [18] is > 100 µM (inactive); in test [13], > 100 µM (inactive); in [14], > 100 µM (inactive); in [15], > 100 µM (inactive); in test [16], 28.9 µM (inactive); in test [17] it was > 100 µM (inactive).

As to `COC(=O)c1c(OC)cccc1C(=O)O`, the GI50 is > 100 µM (inactive) in test [1]; > 100 µM (inactive) in [2]; greater than 100 µM in test [3]; > 100 µM (inactive) in [4]; > 100 µM (inactive) in test [5]; > 100 µM (inactive) in [6]. In addition, the GI50 in test [7], in [8], in [9], in test [10], in [11] and in test [12] was > 100 µM (inactive) each time. The GI50 in test [18], in test [14], in test [15], in [16] and in [17] was > 100 µM (inactive) throughout.

With `CC1CC(=O)Nc2ccc(Cl)cc2N1C(=O)CN1CCC(CCCCN(C)C)CC1` (centres undefined), the GI50 was > 100 µM (inactive) in [1]; > 100 µM (inactive) in test [2]; greater than 100 µM in test [3]; > 100 µM (inactive) in test [4]; > 100 µM (inactive) in test [5]; > 100 µM (inactive) in [19]. Moreover, the GI50 in test [6] was > 100 µM (inactive); in [7], 80 µM (inactive); in [8], > 100 µM (inactive); in [9], > 100 µM (inactive); in [10] it was > 100 µM (inactive); in test [11], > 100 µM (inactive). The GI50 in test [12], in test [13], in test [15] and in [17] was > 100 µM (inactive) in each case.

On to `OCC(O)C(O)C(O)c1nn(-c2ccc(Cl)cc2)c2nc3cc(Cl)c(Cl)cc3nc12` (centres undefined), for which the GI50 in [1] is 65.6 µM (inactive); in test [2], 73.1 µM (inactive); in test [4], > 100 µM (inactive); in [5] it was 20.1 µM (inactive); in [6] it was > 100 µM (inactive); in test [7], 50.8 µM (inactive). Further, the GI50 in [8] is 22.7 µM (inactive); in test [9] it was 15.2 µM (inactive); in test [10] it was > 100 µM (inactive); in [11] it was > 100 µM (inactive); in [12] it was 67.6 µM (inactive); in test [18], 42.8 µM (inactive). In addition, the GI50 is 61.1 µM (inactive) in test [13], 24.8 µM (inactive) in [14], 3.66 µM (inactive) in test [16] and 86.3 µM (inactive) in test [17].

On to `CN(C)c1ccc(/C=C/C(=O)c2ccccc2)cc1Br`, for which the GI50 is 17.2 µM (inactive) in test [1]; 22.8 µM (inactive) in test [2]; 22.9 µM in [3]; 48.5 µM (inactive) in test [5]; 19.7 µM (inactive) in test [6]; 20.6 µM (inactive) in test [7]. Also, the GI50 in [8] was 13.2 µM (inactive); in [9] it was 17.6 µM (inactive); in test [10], 17.8 µM (inactive); in test [11], 15.5 µM (inactive); in test [12], 20 µM (inactive); in test [13] it was 13.7 µM (inactive). Further, the GI50 in test [14] is 18.4 µM (inactive); in test [15], 18.4 µM (inactive); in [16], 16.6 µM (inactive); in [17] it was 22.3 µM (inactive).

For `CCCNCc1nc2ccc(Br)cc2c(=O)n1CCC`, the GI50 in test [1] was 15.8 µM (inactive); in test [2], 16.1 µM (inactive); in [3] it was 14.2 µM; in test [4] it was 6.53 µM (inactive); in test [5] it was 22 µM (inactive); in [6] it was 15.1 µM (inactive). Besides, the GI50 was 8.04 µM (inactive) in test [7]; 14.1 µM (inactive) in [8]; 13.5 µM (inactive) in [9]; 18.4 µM (inactive) in [10]; 14.6 µM (inactive) in [11]; 16.9 µM (inactive) in test [12]. Besides, the GI50 in test [18] is 15.8 µM (inactive); in test [13] it was 15.3 µM (inactive); in test [14], 12.4 µM (inactive); in [15], 7.55 µM (inactive); in test [16], 17.1 µM (inactive); in test [17] it was 13.3 µM (inactive).

`C[C@H]1NC(=O)C2CCCCN2C(=O)CN(C)C(=O)CNC(=O)C2CCCCN2C(=O)[C@@H](NC(=O)c2nc3ccccc3cc2O)[C@@H](C)NC(=O)C2CCCCN2C(=O)CN(C)C(=O)CNC(=O)[C@@H]2CCCCN2C(=O)C1NC(=O)c1nc2ccccc2cc1O` (some centres undefined): the GI50 was 0.203 µM (active) in [1]; 0.232 µM (active) in test [2]; 2.75 µM in [3]; 2.03 µM (inactive) in [4]; 0.251 µM (active) in test [5]; 0.347 µM (active) in test [6]. Further, the GI50 in [7] was 0.231 µM (active); in test [8] it was 0.241 µM (active); in test [9], 0.182 µM (active); in test [10], 0.209 µM (active); in test [11], 0.389 µM (active); in [12], 0.0258 µM (active). The GI50 in test [18] is 0.201 µM (active); in test [13], 0.212 µM (active); in [14], 0.0817 µM (active); in test [15], 0.155 µM (active); in test [16], 0.0598 µM (active); in test [17], 0.185 µM (active).

With `COC1=CC(C)C2C[C@H]3O[C@H](O)C[C@H]4C(C)C(=O)C(O)C([C@@]2(C)C1=O)[C@@]34C` (some centres undefined), the GI50 is > 100 µM (inactive) in [1]; > 100 µM (inactive) in test [2]; greater than 100 µM in test [3]; > 100 µM (inactive) in test [19]; > 100 µM (inactive) in [6]; > 100 µM (inactive) in [7]. For the same compound, the GI50 in test [8], in test [9], in test [10], in [12], in [18] and in [13] was > 100 µM (inactive) each time. The GI50 in test [15], in [16] and in [17] was > 100 µM (inactive) each time.

`COC(=O)C1CC(OC(C)=O)C=C2C(=O)CCC21` (centres undefined): the GI50 is 18.5 µM (inactive) in test [1]; 20.2 µM (inactive) in test [2]; 15.3 µM in test [3]; 16.1 µM (inactive) in test [4]; 25.4 µM (inactive) in test [5]; 15.9 µM (inactive) in test [7]. For the same compound, the GI50 was 16.7 µM (inactive) in [8]; 19.6 µM (inactive) in test [9]; 13.9 µM (inactive) in test [10]; 19 µM (inactive) in test [11]; 20.6 µM (inactive) in test [18]; 17.1 µM (inactive) in [13]. Besides, the GI50 in [14] is 29 µM (inactive); in test [15], 20.5 µM (inactive); in test [16] it was 15.2 µM (inactive); in test [17], 16.8 µM (inactive).

(Values after ChEMBL document CHEMBL1201862, “PubChem BioAssay data set” (2004).)
